Measurements taken from the supplement of paper PMC10307832.

Legend:
Assay in all cases: relative viability (nuclei count vs DMSO), 5 days (fraction); higher = more cells survive
[1] = compound: CC(C)CCN1c2nc(Nc3cc(F)c(O)c(F)c3)ncc2N(C)C(=O)C1C [BI-D1870] + O=C(CCCCCCC(=O)Nc1ccccc1)NO [Vorinostat] (partner 1 µM)
In short: (§1)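 Five library-drug doses in √10 steps were combined with a fixed anchor-drug dose, or a single drug was given alone, by pin tool to lung cancer cell lines in 1536-well plates the day after seeding. Nuclei were stained and counted after 5 days. Relative viability is the nuclei count in treated wells over that in vehicle wells, taken as the median of duplicate plates.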

[2] = compound: O=c1ncccn1[C@@H]1O[C@H](CO)[C@@H](O)[C@H]1O [Zebularine] + CCNC(=O)c1noc(-c2cc(C(C)C)c(O)cc2O)c1-c1ccc(CN2CCOCC2)cc1 [Luminespib] (partner 0.01 µM)
In short: as §1

[3] = compound: O=c1ncccn1[C@@H]1O[C@H](CO)[C@@H](O)[C@H]1O [Zebularine] + Cc1cc(Nc2cc(N3CCN(C)CC3)nc(Sc3ccc(NC(=O)C4CC4)cc3)n2)n[nH]1 [Tozasertib] (partner 0.1 µM)
In short: as §1

[4] = compound: O=c1ncccn1[C@@H]1O[C@H](CO)[C@@H](O)[C@H]1O [Zebularine] + O=C(c1cc(Cc2n[nH]c(=O)c3ccccc23)ccc1F)N1CCN(C(=O)C2CC2)CC1 [Olaparib] (partner 8 µM)
In short: as §1

Row | Cell Line | relative viability ([1]; first compound 0.04 µM) | relative viability ([1]; first compound 0.1265 µM) | relative viability ([1]; first compound 0.4 µM) | relative viability ([1]; first compound 1.265 µM) | relative viability ([1]; first compound 4 µM) | relative viability ([2]; first compound 1 µM) | relative viability ([2]; first compound 3.162 µM) | relative viability ([2]; first compound 10 µM) | relative viability ([2]; first compound 31.62 µM) | relative viability ([2]; first compound 100 µM) | relative viability ([3]; first compound 1 µM) | relative viability ([3]; first compound 3.162 µM) | relative viability ([3]; first compound 10 µM) | relative viability ([3]; first compound 31.62 µM) | relative viability ([3]; first compound 100 µM) | relative viability ([4]; first compound 1 µM) | relative viability ([4]; first compound 3.162 µM) | relative viability ([4]; first compound 10 µM) | relative viability ([4]; first compound 31.62 µM) | relative viability ([4]; first compound 100 µM)
1 | NCI-H1437 | 0.809 | 0.747 | 0.749 | 0.76 | 0.492 | 1.22 | 1.23 | 0.956 | 1.16 | 0.59 | 0.44 | 0.381 | 0.254 | 0.397 | 0.304 | 0.661 | 0.641 | 0.511 | 0.443 | 0.482
2 | ChaGo-K-1 | 0.8 | 0.703 | 0.711 | 0.72 | 0.641 | 0.657 | 0.508 | 0.212 | 0.221 | 0.217 | 0.22 | 0.208 | 0.211 | 0.172 | 0.195 | 0.332 | 0.32 | 0.289 | 0.202 | 0.187
3 | NCI-H650 | 0.478 | 0.407 | 0.413 | 0.413 | 0.386 | 0.776 | 0.742 | 0.595 | 0.355 | 0.224 | 0.756 | 0.656 | 0.524 | 0.346 | 0.238 | 0.351 | 0.332 | 0.307 | 0.28 | 0.177
4 | COR-L23 | 0.615 | 0.402 | 0.494 | 0.5 | 0.269 | 0.88 | 0.753 | 0.332 | 0.439 | 0.171 | 0.216 | 0.263 | 0.186 | 0.181 | 0.119 | 0.336 | 0.329 | 0.277 | 0.178 | 0.138
5 | COR-L 105 | 0.804 | 0.837 | 0.77 | 0.875 | 0.765 | 0.844 | 0.839 | 0.508 | 1.06 | 0.652 | 0.316 | 0.285 | 0.345 | 0.367 | 0.319 | 0.715 | 0.671 | 0.766 | 1.02 | 0.644
6 | LK-2 | 0.351 | 0.391 | 0.468 | 0.277 | 0.279 | 0.17 | 0.176 | 0.213 | 0.182 | 0.176 | 0.179 | 0.188 | 0.171 | 0.178 | 0.166 | 0.884 | 0.714 | 0.335 | 0.259 | 0.221
7 | 201T | 1.01 | 0.91 | 0.922 | 0.914 | 0.932 | 1.09 | 1.1 | 0.894 | 1.04 | 0.724 | 1.03 | 0.938 | 0.647 | 0.977 | 0.595 | 0.907 | 0.798 | 0.574 | 0.544 | 0.474
8 | HCC-44 | 1.14 | 1.07 | 1.16 | 1.14 | 1.14 | 1.17 | 1.15 | 0.746 | 0.374 | 0.388 | 1.14 | 1.05 | 0.82 | 0.418 | 0.361 | 0.974 | 0.971 | 0.762 | 0.825 | 0.39
